Consider one compound from patent publication US20120202840A1, “Use of Flubendazole and Vinca Alkaloids for Treatment of Hematological Diseases” (priority 2009, published 2012).

Usually IC50 stands for the concentration needed to halve the response being measured. A lower IC50 goes with inhibition by little substance. Broadly, the viability is the share of living cells, or the viability signal relative to a control. A lower viability goes with a greater loss of cells.

Where two headings read alike, the source gives them in different places. A value given as a limit tells only on which side of the number the result lay.

Data set [1] deals with OCI-AML2 cells. As to the kind of experiment: Cell cycle analysis (PI, flow cytometry), OCI-AML2. Format: cell-based. As to conditions: OCI-AML2, 1.0 μM, 24 h. On the procedure:
OCI-AML2 cells (A) or PPC-1 cells (B) were incubated with 1.0 μM flubendazole or buffer control for 24 h. Cells were then stained with PI and the DNA content was measured by flow cytometry. A representative figure is shown.
Cell cycle analysis was performed as described by Mao et al^31. Briefly, OCI-AML2 or PPC-1 cells were harvested, washed with cold PBS and resuspended in PBS and cold absolute ethanol. Cells were then treated with 100 ng/mL of DNase-free RNase A (Invitrogen, Carlsbad, Calif.) at 37° C. for 30 min, washed with cold PBS, resuspended in PBS and incubated with 50 μg/mL of propidium iodine (PI) for 15 min at room temperature in the dark. DNA content was measured by flow cytometry (FACSCalibur, Becton Dickinson, Florida, USA) and analyzed with FlowJo software version 7.0 (TreeStar, Ashland, Oreg.).

The conditions of data set [2]: sheep, cited from earlier work.
For data set [3], the system named is CEM-VBL. The data set is described as follows: MTS assay, CEM-VBL (Pgp over-expressing). Format: cell-based. On the procedure: Over-expression of P-glycoprotein (Pgp, MDR1) renders cells resistant to vinca alkaloid microtubule inhibitors.^43 Therefore, the effects of Pgp over-expression on flubendazole's cytotoxicity were tested. CEM-VBL cells over-express Pgp,^44 which was confirmed with a rhodamine dye exclusion assay. CEM wild type and CEM-VBL cells were treated with increasing concentrations of flubendazole or vinblastine and cell viability measured by the MTS assay (Table 1). […] In contrast, CEM-VBL cells over-expressing Pgp were resistant to vinblastine at concentrations greater than 5.0 μM (Table 1).
Leukemia (U937, MDAY, CEM, CEM-VBL) and solid tumor cell lines (PPC-1, HeLa) were cultured in RPMI 1640 medium. The epidermoid carcinoma cell lines KB-3-1 and KB-4.0-HTI^23 were grown in Dulbecco's Modified Eagle Medium. The lung carcinoma cell lines A549 and A549.EpoB40 were grown in RPMI with the latter supplemented with 20% fetal calf serum (FCS), and 40 nM epothilone B.^24 Leukemia cell lines OCI-AML2, CEM, and NB4 and all the myeloma cell lines (OPM2, KMS11, JJN3 LP1, H929, L1, KMS12, KSM18 and OCI My5) were maintained in Iscove's Modified Dulbecco's Medium (IMDM). TEX cells were maintained in IMDM, 15% FCS, 1% penicillin-streptomycin, 2 mM L-glutamine, 20 ng/mL SCF, 2 ng/mL IL-3. Unless otherwise noted, all media were supplemented with 10% FCS, 100 units/mL of streptomycin and 100 μg/mL of penicillin (all from Hyclone, Logan, Utah). Cells were incubated in a humidified air atmosphere containing 5% CO2 at 37° C.
Cell growth and viability was measured using the 3-(4,5-dimethylthiazol-2-yl)-5-(3-carboxymethoxyphenyl)-2-(4-sulfophenyl)-2H-tetrazolium inner salt (MTS) reduction assay (Promega, Madison, Wis.) according to the manufacture's protocol and as previously described^25. Cells were seeded in 96 well plates and treated with drug for 72 h. Optical density (OD) was measured at 490 nm.
In general terms: Tetrazolium assays rely on reduction of a dye to a coloured formazan, in cell work by metabolically active cells.

Data set [4] deals with bovine tubulin. As to the kind of experiment: Measurement of tubulin sulfhydryl groups (DTNB). The following applies: flubendazole 100 μM, vinblastine 10 μM. The data set is classed as biochemical. Here is the method:
A representative figure is shown.
The ability of microtubule target drugs to alter tubulin structure was assessed by measuring the number of reactive cysteine residues using the sulfhydryl reagent 5,5′-Dithio-bis(2-nitrobenzoic acid) (DTNB; Sigma) as previously described^19,29. […] After incubation, DTNB was added (100 μM final concentration) and the absorbance was measured in a 1 cm path length cuvette at 412 nm for 60 min at 37° C. The number of sulfhydryl groups were determined by using a molar extinction coefficient for DTNB of 13 600 (M^−1, cm^−1).^29

Data set [5] is described as follows: in vitro. The data set is classed as cell-based. As to conditions: human. Here is the method:
(§1) (E) HeLa cells were grown to confluence and a wound created on the cell monolayer using a 200 μL pipette. Cells were treated with increasing concentrations of flubendazole and imaged every 2 h for 8 h. Wound healing was measured as described in the materials and methods. Representative data is shown and are presented as % wound recovery. *p<0.05 (ANOVA, bonferroni post hoc).
(§2) HeLa cell migration was measured as previously described^30. Briefly, HeLa cells were seeded in 4 well chambers and grown to confluence. A wound was inflicted to the monolayer using a 200 μL pipette tip. Wells were washed with media to remove any detached cells and media containing either 0 μM, 0.5 μM or 1.0 μM flubendazole was then added and incubated at 37° C. for 8 hours. Images were captured using a Zeiss Axiovert 200M microscope every 2 hours. These images were quantified using Image J software, which outlined and enumerated the number of pixels in the wound area. Cell migration of HeLa cells was recorded and calculated as a percent recovery of wound area.

The subject of data set [6] is HeLa cells. The data set is described as follows: in vitro. The following applies: HeLa, 0.5 or 1.0 μM, 8 hours. Format: cell-based. On the procedure: as §1, §2
The conditions of data set [7]: chickens, up to 180 mg/kg daily for 7 days; cited from earlier work.
Data set [8] has as its system PPC-1 cells. The data set is described as follows: Microtubules in cultured cells (confocal microscopy). The data set is classed as cell-based. As to conditions: PPC-1, 1.0 μM, 24 hours. On the procedure:
(D) PPC-1 cells were treated with 1.0 μM flubendazole (i) or control (ii) for 24 h and stained with DAPI and an anti α-tubulin AlexaFluor 488 nm antibody. Images were captured using an Olympus Fluorview confocal microscope at room temperature. Representative confocal micrographs at 40× are shown.
PPC-1 cells (5.0×10^3) were seeded on glass cover slips in a 6 well plate overnight at 37° C. and then treated with 1.0 μM flubendazole or vehicle control for 24 h. Cells were then fixed in 3.7% paraformeldehyde for 15 min at 37° C., permeabilized using 0.1% triton X-100 for 4 min at room temperature, and incubated at 4° C. overnight in a humidified chamber with a blocking solution (0.5% BSA). Cells were then incubated with a primary mouse anti α-tubulin antibody (clone DMIA, 1:300, in 0.5% BSA; Sigma) for 1 hour at 37° C., washed 3 times in PBS and subsequently incubated with a goat anti-mouse IgG, AlexaFluor 488 secondary antibody (1:500, Sigma) for 1 hour in the dark at room temperature. Cells were then washed, stained with 4′,6-diamidino-2-phenylindole (DAPI) and mounted on a microscope slide using Dakocytomation fluorescent mounting media (Dakocytamation, Carpinteria, Calif.). Slides were imaged using the Olympus Fluoview FV1000 Laser Scanning Confocal Microscope (Olympus America Inc., Center Valley, Pa.) at room temperature at 40×.

The mark [9] stands for this setting: single dose of 5 mg/kg intravenously.

For `COC(=O)Nc1nc2ccc(C(=O)c3ccc(F)cc3)cc2[nH]1` [flubendazole], the cell cycle entry in data set [1] is “arrested cells in the G2 phase”. Besides, the estimated half life in data set [2] (after oral administration) was 6.5 h. Further, the “fraction of flubendazole absorbed” value in data set [2] (oral) was 18%. In addition, the area under the curve (AUC) in data set [2] (single dose of 5 mg/kg intravenously, over 36 hours) was 22 µM·h; in data set [2] (setting [9]), 6530 ng·h/mL. In addition, the toxicity result in data set [2] (setting [9]) was “no toxicity was observed”; in data set [7] it was “developed anemia and reduction of red cells in the spleen”. Moreover, the IC50 in data set [3] (CEM-VBL, 3 replicates) was determined as 2700 ± 1200 nM. For the same compound, in data set [3] (Pgp over-expression), the “sensitivity of CEM-VBL cells compared to wild type controls” value was “fully sensitive”. Moreover, the “reduction in number of reactive cysteines compared to buffer control” value in data set [4] is on record as 5.2±2.6. The compound also displayed a viability at 8 h in data set [5] above 89%. Moreover, the “cell migration / wound healing” value in data set [6] was “impaired cell migration and delayed wound healing”. In addition, the “microtubule architecture in intact cells” value in data set [8] was “disrupts the microtubule architecture”.
